The text below walks through data of ChEMBL document CHEMBL5724914, “Linking interpersonal differences in gut microbiota composition and drug biotransformation activity” (2024).

Series [1] in a line: The drug is tested on WLS-170 corresponding to human gut metagenome with ENA study accession number: PRJEB37062 and ENA sample accession number: ERS12561762 for biotransformation under anaerobic condition. The drug concentrations were measured over 9 timepoints collected between 0 and 24 hours of incubation by liquid-chromatography-coupled mass spectrometry (LC–MS). Conditions: 2 µM.

A short description of series [2]: The drug is tested on WLS-220 corresponding to human gut metagenome with ENA study accession number: PRJEB37062 and ENA sample accession number: ERS12561769 for biotransformation under anaerobic condition. The drug concentrations were measured over 9 timepoints collected between 0 and 24 hours of incubation by liquid-chromatography-coupled mass spectrometry (LC–MS). To be noted: 2 µM.

For series [3] the following is noted: human gut metagenome, 24 h, 2 µM.
Series [4] in a line: The drug is tested on Z-006 corresponding to mouse gut metagenome with ENA study accession number: PRJEB37062 and ENA sample accession number: ERS12561806 for biotransformation under anaerobic condition. The drug concentrations were measured over 9 timepoints collected between 0 and 24 hours of incubation by liquid-chromatography-coupled mass spectrometry (LC–MS). To be noted: 2 µM.

Series [5] can be described thus: The drug is tested on Z-016 corresponding to mouse gut metagenome with ENA study accession number: PRJEB37062 and ENA sample accession number: ERS12561815 for biotransformation under anaerobic condition. The drug concentrations were measured over 9 timepoints collected between 0 and 24 hours of incubation by liquid-chromatography-coupled mass spectrometry (LC–MS). To be noted: 2 µM.

Series [6] in a line: The drug is tested on Z-024 corresponding to pig gut metagenome with ENA study accession number: PRJEB37062 and ENA sample accession number: ERS12561823 for biotransformation under anaerobic condition. The drug concentrations were measured over 9 timepoints collected between 0 and 24 hours of incubation by liquid-chromatography-coupled mass spectrometry (LC–MS). To be noted: 2 µM.

Series [7] is described as follows: The drug is tested on WLS-010 corresponding to human gut metagenome with ENA study accession number: PRJEB37062 and ENA sample accession number: ERS12561743 for biotransformation under anaerobic condition. The drug concentrations were measured over 9 timepoints collected between 0 and 24 hours of incubation by liquid-chromatography-coupled mass spectrometry (LC–MS). To be noted: 2 µM.

For series [8] the following is noted: human gut metagenome, 24 h, 2 µM. The source holds these as a separate data set.
Series [9] is described as follows: The drug is tested on WLS-350 corresponding to human gut metagenome with ENA study accession number: PRJEB37062 and ENA sample accession number: ERS12561789 for biotransformation under anaerobic condition. The drug concentrations were measured over 9 timepoints collected between 0 and 24 hours of incubation by liquid-chromatography-coupled mass spectrometry (LC–MS). Conditions: 2 µM.

For series [10] the following is noted: human gut metagenome, 24 h, 2 µM. The source holds these as a separate data set.
The conditions of series [11]: human gut metagenome, 24 h, 2 µM. This is another data set of the same source.
Series [12] can be described thus: The drug is tested on Z-021 corresponding to metagenome with ENA study accession number: PRJEB37062 and ENA sample accession number: ERS12561820 for biotransformation under anaerobic condition. The drug concentrations were measured over 9 timepoints collected between 0 and 24 hours of incubation by liquid-chromatography-coupled mass spectrometry (LC–MS). To be noted: 2 µM.

For series [13] the following is noted: human gut metagenome, 24 h, 2 µM. The source holds these as a separate data set.
The conditions of series [14]: human gut metagenome, 24 h, 2 µM. The source holds these as a separate data set.
For series [15] the following is noted: human gut metagenome, 24 h, 2 µM. The source holds these as a separate data set.
For series [16] the following is noted: human gut metagenome, 24 h, 2 µM. The source holds these as a separate data set.
Series [17] can be described thus: The drug is tested on WLS-038 corresponding to human gut metagenome with ENA study accession number: PRJEB37062 and ENA sample accession number: ERS12561745 for biotransformation under anaerobic condition. The drug concentrations were measured over 9 timepoints collected between 0 and 24 hours of incubation by liquid-chromatography-coupled mass spectrometry (LC–MS). To be noted: 2 µM.

Series [18] is described as follows: The drug is tested on WLS-027 corresponding to human gut metagenome with ENA study accession number: PRJEB37062 and ENA sample accession number: ERS12561744 for biotransformation under anaerobic condition. The drug concentrations were measured over 9 timepoints collected between 0 and 24 hours of incubation by liquid-chromatography-coupled mass spectrometry (LC–MS). To be noted: 2 µM.

The conditions of series [19]: human gut metagenome, 24 h, 2 µM. This is another data set of the same source.
Series [20] can be described thus: The drug is tested on WLS-073 corresponding to human gut metagenome with ENA study accession number: PRJEB37062 and ENA sample accession number: ERS12561749 for biotransformation under anaerobic condition. The drug concentrations were measured over 9 timepoints collected between 0 and 24 hours of incubation by liquid-chromatography-coupled mass spectrometry (LC–MS). To be noted: 2 µM.

The structures appear in SMILES notation.
Further: call rule not given here.

With `O=C1C(CC[S+]([O-])c2ccccc2)C(=O)N(c2ccccc2)N1c1ccccc1` (stereo not given) [SULFINPYRAZONE], the “Bacterial Biotransformation” value in series [1] is listed as “Compound metabolized”; in series [2], “Compound metabolized”; in series [3], “Compound metabolized”; in series [4], “Compound NOT metabolized”; in series [5], “Compound NOT metabolized”; in series [6], “Compound metabolized”. Further, the “Bacterial Biotransformation” value is “Compound metabolized” in [7]; “Compound metabolized” in [8]; “Compound metabolized” in series [9]; “Compound metabolized” in series [10]; “Compound metabolized” in series [11]; “Compound NOT metabolized” in series [12]. Also, the “Bacterial Biotransformation” value in series [13], in [14], in series [15], in [16], in series [17] and in series [18] was “Compound metabolized” throughout. Also, the “Bacterial Biotransformation” value in [19] and in [20] was “Compound metabolized” in each case.
As to `COc1cc(C(=O)NCc2ccc(OCCN(C)C)cc2)cc(OC)c1OC` [TRIMETHOBENZAMIDE], the “Bacterial Biotransformation” value in series [1], in series [2], in series [3], in series [4], in [5] and in series [6] was “Compound NOT metabolized” each time. Further, the “Bacterial Biotransformation” value in series [7], in [8], in [9], in series [10], in series [11] and in [12] was “Compound NOT metabolized” in each case. The “Bacterial Biotransformation” value in series [13], in series [14], in [15], in series [16], in [17] and in series [18] was “Compound NOT metabolized” each time. Besides, the “Bacterial Biotransformation” value in series [19] and in [20] was “Compound NOT metabolized” each time.
For `COc1ccc(C(CN(C)C)C2(O)CCCCC2)cc1` (stereo not given) [VENLAFAXINE], the “Bacterial Biotransformation” value in series [1], in series [2], in series [3], in series [4], in series [5] and in series [6] was “Compound NOT metabolized” each time. Also, the “Bacterial Biotransformation” value in [7], in series [8], in [9], in series [10], in series [11] and in [12] was “Compound NOT metabolized” in each case. Besides, the “Bacterial Biotransformation” value in series [13] is “Compound metabolized”; in series [14] it was “Compound NOT metabolized”; in series [15] it was “Compound NOT metabolized”; in series [16], “Compound NOT metabolized”; in [17], “Compound NOT metabolized”; in [18], “Compound NOT metabolized”. Further, the “Bacterial Biotransformation” value in [19] is on record as “Compound metabolized”; in series [20], “Compound NOT metabolized”.
As to `OC(c1cc(C(F)(F)F)nc2c(C(F)(F)F)cccc12)C1CCCCN1` (stereo not given) [MEFLOQUINE], the “Bacterial Biotransformation” value in series [1] was “Compound metabolized”; in series [2], “Compound metabolized”; in series [3], “Compound metabolized”; in series [4] it was “Compound NOT metabolized”; in series [5], “Compound NOT metabolized”; in series [6], “Compound metabolized”. Further, the “Bacterial Biotransformation” value is listed as “Compound metabolized” in series [7]; “Compound NOT metabolized” in series [8]; “Compound NOT metabolized” in series [9]; “Compound NOT metabolized” in series [10]; “Compound metabolized” in [11]; “Compound metabolized” in series [12]. Also, the “Bacterial Biotransformation” value in series [13] is “Compound metabolized”; in [14] it was “Compound metabolized”; in [15] it was “Compound metabolized”; in series [16] it was “Compound NOT metabolized”; in series [17] it was “Compound metabolized”; in [18], “Compound metabolized”. In addition, the “Bacterial Biotransformation” value in series [19] and in series [20] was “Compound metabolized” throughout.
As to `CC(=O)Nc1ccc(OC(C)=O)cc1` [DIACETAMATE], the “Bacterial Biotransformation” value in [1], in series [2], in [3], in series [4], in series [5] and in series [6] was “Compound metabolized” in each case. In addition, the “Bacterial Biotransformation” value in [7], in series [8], in series [9], in [10], in series [11] and in series [12] was “Compound metabolized” in each case. Also, the “Bacterial Biotransformation” value in [13], in series [14], in series [15], in series [16], in [17] and in series [18] was “Compound metabolized” each time. Besides, the “Bacterial Biotransformation” value in [19] and in [20] was “Compound metabolized” each time.
Regarding `CCN(CC)CCOC(=O)C1(C2CCCCC2)CCCCC1` [DICYCLOMINE], the “Bacterial Biotransformation” value was “Compound metabolized” in series [1]; “Compound NOT metabolized” in [2]; “Compound metabolized” in [3]; “Compound NOT metabolized” in series [4]; “Compound NOT metabolized” in series [5]; “Compound metabolized” in series [6]. Also, the “Bacterial Biotransformation” value in series [7] is reported as “Compound metabolized”; in series [8], “Compound NOT metabolized”; in series [9], “Compound NOT metabolized”; in [10] it was “Compound NOT metabolized”; in series [11], “Compound metabolized”; in series [12] it was “Compound NOT metabolized”. Besides, the “Bacterial Biotransformation” value was “Compound metabolized” in [13]; “Compound metabolized” in series [14]; “Compound metabolized” in [15]; “Compound NOT metabolized” in [16]; “Compound NOT metabolized” in series [17]; “Compound metabolized” in series [18]. Moreover, the “Bacterial Biotransformation” value in [19] is listed as “Compound metabolized”; in series [20], “Compound NOT metabolized”.
